Where a name gives a salt, the structure may show the parent alone.
Legend:
MAO-B = molecular target: T1, MAO-B (Rattus norvegicus, UniProt P19643); assay: MAO-B inhibition activity with rat forebrain (14C-PEA substrate); format: biochemical, rat (male Wistar); conditions: for inhibition at 1 µM / Inhibiting activity MAO-B (% at 10^-6 M): 10^-6 M; for inhibition at 1 µM: read-out: Inhibiting activity MAO-B (% at 10^-6 M); for IC50: PEA 20 μM, read-out: Inhibiting activity MAO-B, IC50
T1 construct: suspension of 1 part by volume of the forebrains of male Wistar rats; from tissue; host or cells: forebrain of male Wistar rats, suspension in potassium phosphate buffer
T1 sequence (P19643 1-520): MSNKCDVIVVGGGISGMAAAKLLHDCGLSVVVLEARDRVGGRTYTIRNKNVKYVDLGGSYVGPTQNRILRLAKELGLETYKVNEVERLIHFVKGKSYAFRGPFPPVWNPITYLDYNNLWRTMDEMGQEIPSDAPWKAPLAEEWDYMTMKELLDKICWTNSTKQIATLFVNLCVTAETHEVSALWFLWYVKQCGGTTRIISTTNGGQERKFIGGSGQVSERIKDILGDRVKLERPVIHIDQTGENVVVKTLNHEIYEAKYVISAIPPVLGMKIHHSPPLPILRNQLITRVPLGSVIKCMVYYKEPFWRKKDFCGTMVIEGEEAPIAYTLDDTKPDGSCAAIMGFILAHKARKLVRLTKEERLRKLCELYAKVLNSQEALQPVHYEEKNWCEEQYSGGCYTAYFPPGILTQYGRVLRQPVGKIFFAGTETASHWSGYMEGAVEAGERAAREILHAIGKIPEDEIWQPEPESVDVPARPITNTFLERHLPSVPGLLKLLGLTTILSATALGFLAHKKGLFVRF
Protocol: (§1) Determination of MAO inhibition activity with the use of rat forebrain:
(§2) The MAO inhibition activity was determined by a method of Prada et al. (J. Pharmacol. Exp. Ther., 248, 400-414 (1989)).
(§3) The enzyme reaction was conducted in 300 μl of a solution having the following composition:
(§4) ^14 C-labelled enzyme substrate
(§5) The enzyme source used was a suspension of 1 part by volume of the forebrains of male Wistar rats in 5 parts by volume of a 0.1M potassium phosphate buffer (pH 7.4). The enzyme source was mixed with the test compound and the mixture was prewarmed at 37° C. for 10 min. Then the enzyme substrate was added thereto to initiate the enzyme reaction. After 10 min, 200 μl of 2N hydrochloric acid was added to terminate the reaction.
(§6) As the substrates for MAO-A and MAO-B, 5-HT (serotonin) and PEA (β-phenethylamine) each labelled with ^14 C were used, respectively. The specific radioactivities of 5-HT and PEA were regulated to 11.1 MBq/mmol and 29.6 MBq/mmol, respectively, and the concentrations of them were 200 μM and 20 μM, respectively, in the reaction.
(§7) The test compound was dissolved in distilled water so that an intended concentration could be obtained in the enzyme reaction. When the test compound was insoluble in water, it was dissolved in dimethyl sulfoxide to obtain a 10% solution.
(§8) Diethyl ether and n-heptane were used as […], respectively. After the termination of the enzyme reaction, 3 ml of the solvent was added to the reaction mixture and shaken for 10 min. After centrifugation at 3,000 rpm for about 10 min, the lower aqueous layer was frozen in dry ice/acetone. The upper organic layer was recovered by decantation and the radioactivity thereof was determined with a liquid scintillation counter.
(§9) The inhibiting activities of the test compounds against MAO A and MAO B are given at the concentrations of 10^-7 M and 10^-6 M or by IC50 values.

MAO-A = molecular target: T2, MAO-A (Rattus norvegicus, UniProt P21396); assay: MAO-A inhibition activity with rat forebrain (14C-5-HT substrate); format: biochemical, rat (male Wistar); conditions: for inhibition at 0.1 µM / Inhibiting activity MAO-A (% at 10^-7 M): 10^-7 M; for inhibition at 0.1 µM: read-out: Inhibiting activity MAO-A (% at 10^-7 M); for IC50: 5-HT 200 μM, read-out: Inhibiting activity MAO-A, IC50
T2 construct: suspension of 1 part by volume of the forebrains of male Wistar rats; from tissue; host or cells: forebrain of male Wistar rats, suspension in potassium phosphate buffer
T2 sequence (P21396 1-526): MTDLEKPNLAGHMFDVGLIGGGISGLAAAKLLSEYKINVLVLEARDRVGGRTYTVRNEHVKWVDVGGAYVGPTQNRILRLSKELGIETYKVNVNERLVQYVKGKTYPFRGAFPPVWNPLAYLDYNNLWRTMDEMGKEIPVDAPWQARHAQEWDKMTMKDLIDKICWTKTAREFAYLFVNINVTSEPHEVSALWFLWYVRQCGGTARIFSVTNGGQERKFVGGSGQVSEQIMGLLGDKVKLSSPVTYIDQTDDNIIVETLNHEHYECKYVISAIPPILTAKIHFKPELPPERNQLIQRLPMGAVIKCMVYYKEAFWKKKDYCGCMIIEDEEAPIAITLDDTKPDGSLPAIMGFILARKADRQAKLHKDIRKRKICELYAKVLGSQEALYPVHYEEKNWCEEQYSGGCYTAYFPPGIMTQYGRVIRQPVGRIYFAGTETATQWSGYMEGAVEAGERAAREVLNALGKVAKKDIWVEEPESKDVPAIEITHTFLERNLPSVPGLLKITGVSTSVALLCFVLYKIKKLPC
Protocol: as §1, §2, §3, §4, §5, §6, §7, §8, §9

| SMILES | inhibition at 1 µM (MAO-B) | inhibition at 0.1 µM (MAO-A) | IC50 (MAO-A) | other results |
| --- | --- | --- | --- | --- |
| COCC1CN(c2ccc3nc(COC(=O)c4ccccc4)sc3c2)C(=O)O1 (centres unmarked) [Example 1, 3-(2-Benzoyloxymethylbenzothiazol-6-yl)-5-methoxymethyl-2-oxazolidinone] | 15% | 93% | – | – |
| COCC1CN(c2ccc3nc(CO)sc3c2)C(=O)O1 (centres unmarked) [Example 2, 3-(2-Hydroxymethylbenzothiazol-6-yl)-5-methoxymethyl-2-oxazolidinone] | 11% | 64% | – | – |
| COCC1CN(c2ccc3nc(COCC#N)sc3c2)C(=O)O1 (centres unmarked) [Example 3] | 11% | – | 0.005 µM | – |
| COCC1CN(c2ccc3nc(CNCC#N)sc3c2)C(=O)O1 (centres unmarked) [Example 4, 3-[(2-Cyanomethylaminomethylbenzothiazol)-6-yl]-5-methoxymethyl-2-oxazolidinone] | 13% | – | 0.039 µM | – |
| COCC1CN(c2ccc3nc(C4CCC(=O)O4)sc3c2)C(=O)O1 (centres unmarked) [Example 5, 3-[2-(5-Oxotetrahydrofuran-2-yl)benzothiazol-6-ul]-5methoxymethyl-2-oxazolidinone] | 11% | – | – | Inhibiting activity MAO-A (% at 10^-7 M) (MAO-A): 78% |
| COC[C@H]1CN(c2ccc3nc(C4CCC(O)O4)sc3c2)C(=O)O1 (some centres unmarked) [Example 7] | 10% | 24% | – | – |
| COCC1CN(c2ccc3nc(C(O)CC=NO)sc3c2)C(=O)O1 (centres unmarked) [Example 8, 3-[2-(1-Hydroxy-3-hydroxyiminopropyl)benzothiazol-6-yl]-5-methoxymethyl-2-oxazolidinone] | 13% | 80% | – | – |
| COC[C@H]1CN(c2ccc3nc([C@@H](O)CCC#N)sc3c2)C(=O)O1 [Example 9, 3-[2-(1(S)-Hydroxy-3-cyanopropyl)benzothiazol-6-yl]-5(R)-methoxymethyl-2-oxazolidinone] | 13% | 87% | – | – |
| COC[C@H]1CN(c2ccc3nc(N4CCC(C#N)CC4)sc3c2)C(=O)O1 [Example 13, (R)-3-[2-(4-Cyanopiperidino)benzothiazol-6-yl]-5-methoxymethy]-2-oxazolidinone hydrochloride] | – | – | 0.29 µM | IC50 (MAO-B): 598 µM |
| COCC1CN(c2ccc3nc(CCCC#N)sc3c2)C(=O)O1 (centres unmarked) [Example 14] | – | – | 0.014 µM | IC50 (MAO-B): 579 µM |
| COCC1CN(c2ccc3nc(CCC#N)sc3c2)C(=O)O1 (centres unmarked) [Example 15] | – | – | 0.256 µM | IC50 (MAO-B): 487 µM |
| COC[C@H]1CN(c2ccc3nc(CCCC#N)sc3c2)C(=O)O1 [Example 16] | 17% | 71% | – | – |
| COC[C@@H]1CN(c2ccc3nc(CCCC#N)sc3c2)C(=O)O1 [Example 17] | 9% | 24% | – | – |
| N#CCCCc1nc2ccc(N3C[C@H](CO)OC3=O)cc2s1 [Example 18] | – | – | 0.021 µM | IC50 (MAO-B): 930 µM |
| N#CCCCc1nc2ccc(N3C[C@@H](CO)OC3=O)cc2s1 [Example 19] | 16% | 61% | – | – |
| COCC1CN(c2ccc3nc(CCCCC#N)sc3c2)C(=O)O1 (centres unmarked) [Example 20] | 14% | 15% | – | – |
| COCC1CN(c2ccc3nc(/C=C/CCC#N)sc3c2)C(=O)O1 (centres unmarked) [Example 21] | 8% | 10% | – | – |
| COC[C@@H]1CN(c2ccc3nc(CCCCC#N)sc3c2)C(=O)O1 [Example 22] | 7% | 75% | – | – |
| COC[C@H]1CN(c2ccc3nc(CCCCC#N)sc3c2)C(=O)O1 [Example 23] | – | – | 0.028 µM | IC50 (MAO-B): > 100 µM |

| SMILES | inhibition at 1 µM (MAO-B) | inhibition at 0.1 µM (MAO-A) | IC50 (MAO-A) | other results |
| --- | --- | --- | --- | --- |
| N#CCCCCc1nc2ccc(N3C[C@H](CO)OC3=O)cc2s1 [Example 24] | – | – | 0.137 µM | IC50 (MAO-B): > 100 µM |
| COC[C@H]1CN(c2ccc3nc(C(C)(C)CCC#N)sc3c2)C(=O)O1 [Example 25] | 7% | 73% | – | – |
| CC(C)(CCC#N)c1nc2ccc(N3C[C@H](CO)OC3=O)cc2s1 [Example 26] | 7% | 73% | – | – |
| COCC1CN(c2ccc3nc(C(O)CCC#N)sc3c2)C(=O)O1 (centres unmarked) [Example 27] | – | – | 0.0067 µM | Inhibiting activity MAO-B (% at 10^-6 M) (MAO-B): 10% |
| COCC1CN(c2ccc3nc(N(C)CCC#N)sc3c2)C(=O)O1 (centres unmarked) [Example 28] | – | – | 0.031 µM | IC50 (MAO-B): 990 µM |
| CN(CCC#N)c1nc2ccc(N3CC(CO)OC3=O)cc2s1 (centres unmarked) [Example 29] | – | – | 0.019 µM | IC50 (MAO-B): 2240 µM |
| COCC1CN(c2ccc3nc(C(O)CCCO)sc3c2)C(=O)O1 (centres unmarked) [Example 30] | 15% | 42% | – | – |
| COCC1CN(c2ccc3nc(C(=O)CCC#N)sc3c2)C(=O)O1 (centres unmarked) [Example 31] | 12% | 54% | – | – |
| COCC1CN(c2ccc3nc(NCCC#N)sc3c2)C(=O)O1 (centres unmarked) [Example 32] | 7% | 23% | – | – |
| N#CCCNc1nc2ccc(N3CC(CO)OC3=O)cc2s1 (centres unmarked) [Example 33] | 10% | 5% | – | – |
| COCC1CN(c2ccc3nc(C4CCC(=O)O4)sc3c2)C(=O)O1 (centres unmarked) [Example 34] | – | – | – | Inhibiting activity MAO-B (% at 10^-6 M) (MAO-B): 8%; Inhibiting activity MAO-A (% at 10^-7 M) (MAO-A): 11% |
| COCC1CN(c2ccc3nc(C(O)CCC#N)sc3c2)C(=O)O1 (centres unmarked) [Example 35] | – | 27% | – | Inhibiting activity MAO-B (% at 10^-6 M) (MAO-B): 0% |
| COCC1CN(c2ccc3nc(C(C)(O)CCC#N)sc3c2)C(=O)O1 (centres unmarked) [Example 36] | 1% | – | 0.0068 µM | – |
| COCC1CN(c2ccc3nc(C(CCC#N)=NO)sc3c2)C(=O)O1 (centres unmarked) [Example 38] | 11% | 32% | – | – |
| COCC1CN(c2ccc3nc(C(CCC#N)=NOC)sc3c2)C(=O)O1 (centres unmarked) [Example 39] | 2% | 15% | – | – |
| COCC1CN(c2ccc3nc(C(CCC#N)N4CCCC4)sc3c2)C(=O)O1 (centres unmarked) [Example 40] | 6% | 8% | – | – |
| COCC1CN(c2ccc3nc(C(N)CCC#N)sc3c2)C(=O)O1 (centres unmarked) [Example 41] | 3% | 9% | – | – |
| N#CC1CCN(c2nc3ccc(N4CC(CO)OC4=O)cc3s2)CC1 (centres unmarked) [Example 42] | 5% | 63% | – | – |

From US5475014A, “Oxazolidone derivative” (Eisai Co., Ltd., priority 1991, dated 1995)
